Converted amounts (≈) assume the structure as drawn. Read-outs that look alike come from different tables or passages of the source.
Experiments:
[1] = test system: Desulfovibrio desulfuricans IFO 13699; assay: MIC against Desulfovibrio desulfuricans; type: cell-based; conditions: Desulfovibrio desulfuricans
Description: (§1) Below are described the antibacterial activities of the compounds in the compositions according to this invention.
(§2) The testing method complied with the standard method of Japan Sociaty of Chemotherapy.

Pasteurella multocida = assay: MIC against Pasteurella multocida; type: cell-based; conditions: Pasteurella multocida; Table 3; heart infusion agar, 37° C., 24 hours; read-out: MIC
Description: (§3) Below are described the antibacterial activities of the compounds in the compositions according to this invention. The results of antibacterial activity tests on the N-alkyl-substituted azaalkenelactams and their derivatives having a carboxylate radical of Examples 1 to 70 were as shown in Tables 1 to 3.
as §2

[2] = test system: Staphylococcus aureus FDA 209P; assay: MIC against Staphylococcus aureus FDA 209P; type: cell-based; conditions: Staphylococcus aureus, FDA209P
Description: as §1, §2

Streptococcus faecalis = assay: MIC against Streptococcus faecalis; type: cell-based; conditions: Enterococcus faecalis
Description: as §3, §2

[3] = test system: Bacillus subtilis ATCC 6633; assay: MIC against Bacillus subtilis ATCC 6633; type: cell-based; conditions: Bacillus subtilis, ATCC6633, 24 h
Description: as §3, §2

Salmonella typhinurium = assay: microbe, parasite or virus in culture; type: cell-based, Salmonella typhimurium
Description: as §3, §2

Escherichia coli NIHJ = assay: MIC against Escherichia coli NIHJ; type: cell-based; conditions: Escherichia coli
Description: as §1, §2

[4] = test system: Pseudomonas aruginosa IFO 3443; assay: MIC against Pseudomonas aeruginosa; type: cell-based; conditions: Pseudomonas
Description: as §3, §2

[5] = test system: Staphylococcus epidermidis; assay: MIC against Staphylococcus epidermidis; type: cell-based; conditions: Staphylococcus epidermidis
Description: as §3, §2

[6] = Table 3, heart infusion agar, 37° C., 24 hours, read-out: MIC
[7] = IFO13699, Table 1, azaalkenelactams, heart infusion agar, 37° C., 24 hours, read-out: MIC
[8] = Table 1, azaalkenelactams, heart infusion agar, 37° C., 24 hours, read-out: MIC

SMILES	MIC ([1]; IFO13699, 24 h)	MIC (Pasteurella multocida)	MIC ([2]; 24 h)	MIC (Streptococcus faecalis; 24 h)	MIC [3]	MIC (Salmonella typhinurium; 24 h)	MIC (Escherichia coli NIHJ; 24 h)	MIC ([4]; IFO3443, 24 h)	MIC ([5]; 24 h)	MIC (Salmonella typhinurium; [6])	MIC [5, 6]	MIC [1, 7]	MIC [2, 8]	MIC (Streptococcus faecalis; [6])	MIC (Escherichia coli NIHJ; [8])	MIC ([4]; IFO3443, Table 3, heart infusion agar, 37° C., 24 hours, read-out: MIC)	MIC ([1]; IFO13699, Table 2, derivatives having a carboxylate radical, heart infusion agar, 37° C., 24 hours, read-out: MIC)	MIC ([2]; Table 2, derivatives having a carboxylate radical, heart infusion agar, 37° C., 24 hours, read-out: MIC)
CCCCCCCCCCCC(=O)NCCN1CCN=C(C)CC1=O [Example 9, 4-lauramidoethyl-7-methyl-3,6-dihydro-2H-1,4-diazepin-5-one]	6.25 µg/mL (≈ 17.8 µM)	3.12 µg/mL (≈ 8.88 µM)	12.5 µg/mL (≈ 35.6 µM)	12.5 µg/mL (≈ 35.6 µM)	25 µg/mL (≈ 71.1 µM)	6.25 µg/mL (≈ 17.8 µM)	25 µg/mL (≈ 71.1 µM)	100 µg/mL (≈ 284 µM)	6.25 µg/mL (≈ 17.8 µM)									
CCCCCCCCCCCC(=O)NCCN1CC[N+](CC(=O)[O-])=C(C)CC1=O [4-lauramidoethyl-7-methyl-1-azonia-4-azacyclohept-7-en-5-one-1-acetate]	12.5 µg/mL (≈ 30.5 µM)	< 1.56 µg/mL	50 µg/mL (≈ 122 µM)	12.5 µg/mL (≈ 30.5 µM)	50 µg/mL (≈ 122 µM)	6.25 µg/mL (≈ 15.3 µM)	100 µg/mL (≈ 244 µM)	200 µg/mL (≈ 488 µM)	12.5 µg/mL (≈ 30.5 µM)									
CCCCCCCCCCCCCCC(O)CNCCN1CCN=CCC(C)C1=O (stereo not drawn) [Example 66, 4-(2-hydroxyhexadecyl)aminoethyl-6-methyl-2,3,6,7-tetrahydro-1,4-diazocin-5-one]	12.5 µg/mL (≈ 29.5 µM)	< 1.56 µg/mL	12.5 µg/mL (≈ 29.5 µM)	6.25 µg/mL (≈ 14.8 µM)	6.25 µg/mL (≈ 14.8 µM)		25 µg/mL (≈ 59 µM)	200 µg/mL (≈ 472 µM)		3.12 µg/mL (≈ 7.36 µM)	1.56 µg/mL (≈ 3.68 µM)							
CCCCCCCCCCCCCCC(O)CNCCN1CCN=CCCC1=O (stereo not drawn) [Example 54, 4-(2-hydroxyhexadecyl)aminoethyl-2,3,6,7-tetrahydro-1,4-diazocin-5-one]	6.25 µg/mL (≈ 15.3 µM)	< 1.56 µg/mL	6.25 µg/mL (≈ 15.3 µM)	6.25 µg/mL (≈ 15.3 µM)	3.12 µg/mL (≈ 7.62 µM)		6.25 µg/mL (≈ 15.3 µM)	200 µg/mL (≈ 488 µM)		3.12 µg/mL (≈ 7.62 µM)	1.56 µg/mL (≈ 3.81 µM)							
CCCCCCCCCCCCNCCNCCN1CCN=C(C)CC1=O [Example 34, 4-dodecylaminoethylaminoethyl-7-methyl-3,6-dihydro-2H-1,4-diazepin-5-one]		< 1.56 µg/mL		6.25 µg/mL (≈ 16.4 µM)	3.12 µg/mL (≈ 8.2 µM)		25 µg/mL (≈ 65.7 µM)	100 µg/mL (≈ 263 µM)		3.12 µg/mL (≈ 8.2 µM)	< 1.56 µg/mL	3.12 µg/mL (≈ 8.2 µM)	3.12 µg/mL (≈ 8.2 µM)					
CCCCCCCCCCCCCCC(O)CNCCN1CCN=C(C)CC1=O (stereo not drawn) [Example 29, 4-(2-hydroxyhexadecyl)aminoethyl-7-methyl-3,6-dihydro-2H-1,4-diazepin-5-one]		< 1.56 µg/mL			3.12 µg/mL (≈ 7.62 µM)					3.12 µg/mL (≈ 7.62 µM)	1.56 µg/mL (≈ 3.81 µM)	3.12 µg/mL (≈ 7.62 µM)	6.25 µg/mL (≈ 15.3 µM)	6.25 µg/mL (≈ 15.3 µM)	25 µg/mL (≈ 61 µM)	100 µg/mL (≈ 244 µM)		
CCCCCCCCCCCCCCNCCN1CC[N+](CC(=O)[O-])=C(C)CC1=O [4-tetradecylaminoethyl-7-methyl-1-azonia-4-azacyclohept-7-en-5-one-1-acetate]		3.12 µg/mL (≈ 7.36 µM)		6.25 µg/mL (≈ 14.8 µM)	12.5 µg/mL (≈ 29.5 µM)	6.25 µg/mL (≈ 14.8 µM)	100 µg/mL (≈ 236 µM)	100 µg/mL (≈ 236 µM)			3.12 µg/mL (≈ 7.36 µM)						3.12 µg/mL (≈ 7.36 µM)	3.12 µg/mL (≈ 7.36 µM)
CCCCCCCCCCCCCCNCCN1CCN=CCC(C)C1=O (stereo not drawn) [Example 65, 4-tetradecylaminoethyl-6-methyl-2,3,6,7-tetrahydro-1,4-diazocin-5-one]	6.25 µg/mL (≈ 16.5 µM)	< 1.56 µg/mL		6.25 µg/mL (≈ 16.5 µM)	3.12 µg/mL (≈ 8.22 µM)		12.5 µg/mL (≈ 32.9 µM)	100 µg/mL (≈ 263 µM)		3.12 µg/mL (≈ 8.22 µM)	1.56 µg/mL (≈ 4.11 µM)		3.12 µg/mL (≈ 8.22 µM)					
CCCCCCCCCCCCCCNCCN1CCCN=CC(C)C1=O (stereo not drawn) [Example 48, 1-tetradecylaminoethyl-3-methyl-3,6,7,8-tetrahydro-1,5-diazocin-2-one]		< 1.56 µg/mL		6.25 µg/mL (≈ 16.5 µM)	6.25 µg/mL (≈ 16.5 µM)		12.5 µg/mL (≈ 32.9 µM)	50 µg/mL (≈ 132 µM)		3.12 µg/mL (≈ 8.22 µM)	1.56 µg/mL (≈ 4.11 µM)	3.12 µg/mL (≈ 8.22 µM)	3.12 µg/mL (≈ 8.22 µM)					

Reference: US4346087A, “Antibacterial surface active agent containing azaalkenelactam” (priority 1979, dated 1982)
